Data: the supplement of paper PMC10307832

Tests used:
Assay in all cases: relative viability (nuclei count vs DMSO), 5 days (fraction); higher = more cells survive
Carboplatin + Trametinib = compound: C1CC(C1)(C(=O)O)C(=O)O.[NH2-].[NH2-].[Pt+2] [Carboplatin] + CC(=O)Nc1cccc(-n2c(=O)n(C3CC3)c(=O)c3c(Nc4ccc(I)cc4F)n(C)c(=O)c(C)c32)c1 [Trametinib] (partner 0.02 µM)
Outline: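 A single step with final 0.05% Triton X-100, 1% formaldehyde and 1 ug/ml Hoechst fixed the cells and stained nuclei 5 days after treatment. Lung cancer cell lines in 1536-well plates had been treated by pin tool the day after seeding with one drug alone or a fixed anchor-drug dose plus five library-drug doses (not always all listed) in √10 steps, and nuclei were counted on 4× images. Relative viability is the ratio of nuclei in treated wells to nuclei in vehicle wells, taken as the median of duplicate plates.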

Carboplatin = compound: C1CC(C1)(C(=O)O)C(=O)O.[NH2-].[NH2-].[Pt+2] [Carboplatin]
Outline: (§1)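 Lung cancer cell lines received five library-drug doses (not always all listed) spaced by √10, pinned on vehicle-anchored 1536-well plates after an overnight stay at 37 °C. Five days later, with no medium change, nuclei were Hoechst-stained, imaged at 4× and counted with MetaXpress. Viability is treated-well nuclei relative to vehicle-well nuclei, as a median across plates. Passing plates had control CV below 25% and at least one doubling.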

GSK126 = compound: CC[C@H](C)N1C=C(C2=C(C=C(C=C21)C3=CN=C(C=C3)N4CCNCC4)C(=O)NCC5=C(C=C(NC5=O)C)C)C [GSK126]
Outline: as §1

MLN4924 = compound: NS(=O)(=O)OC[C@@H]1C[C@@H](n2ccc3c(N[C@H]4CCc5ccccc54)ncnc32)C[C@@H]1O [MLN4924]
Outline: as §1

Cell Line	relative viability (Carboplatin + Trametinib; first compound 0.08 µM)	relative viability (Carboplatin + Trametinib; first compound 0.253 µM)	relative viability (Carboplatin + Trametinib; first compound 0.8 µM)	relative viability (Carboplatin + Trametinib; first compound 2.53 µM)	relative viability (Carboplatin + Trametinib; first compound 8 µM)	relative viability (Carboplatin; 0.08 µM)	relative viability (Carboplatin; 0.253 µM)	relative viability (Carboplatin; 0.8 µM)	relative viability (Carboplatin; 2.53 µM)	relative viability (Carboplatin; 8 µM)	relative viability (GSK126; 0.08 µM)	relative viability (GSK126; 0.253 µM)	relative viability (GSK126; 0.8 µM)	relative viability (GSK126; 2.53 µM)	relative viability (GSK126; 8 µM)	relative viability (MLN4924; 0.04 µM)	relative viability (MLN4924; 0.1265 µM)	relative viability (MLN4924; 0.4 µM)	relative viability (MLN4924; 1.265 µM)	relative viability (MLN4924; 4 µM)
PC-14	0.785	0.751	0.692	0.407	0.14	1.09	0.998	0.997	0.684	0.309	1.02	1.01	0.935	1.03	0.942	1.04	0.93	0.624	0.153	0.111
HCC-15	0.371	0.399	0.381	0.391	0.371	1.03	1.05	0.964	0.94	0.864	1.07	1.03	0.988	1.01	0.909	0.62	0.483	0.158	0.0986	0.103
NCI-H2347	0.319	0.271	0.244	0.287	0.265	1.05	1	1.07	1.06	0.909	1.08	0.976	1.04	1.05	1	0.963	0.975	0.584	0.406	0.386
LOU-NH91	0.786	0.792	0.763	0.803	0.775	1.16	0.938	0.96	0.969	0.936	0.966	0.978	0.95	1.06	0.985	0.997	1.13	0.929	0.543	0.563
LCLC-103H	0.703	0.703	0.68	0.689	0.654	1.03	0.989	0.992	1.07	0.834	1.02	1.03	1.01	0.994	1.01	0.949	1.02	0.912	0.282	0.312
EMC-BAC-2	0.899	0.825	0.924	0.832	0.686	1.05	0.942	1.16	1.2	0.855	0.978	0.965	0.984	0.989	1.16	0.876	0.906	0.359	0.243	0.257
NCI-H2228	0.678	0.575	0.616	0.543	0.344	1.27	1.16	0.91	0.941	0.687	1.21	0.992	1.04	1.12	1.07	0.723	1.08	0.435	0.171	0.205
HOP-62	0.393	0.359	0.385	0.393	0.363	1.03	1.03	1.06	0.981	0.833	1.01	1.02	1.03	0.968	0.973	0.814	0.74	0.226	0.067	0.101
NCI-H727	0.391	0.4	0.349	0.376	0.392	1.11	0.841	0.94	0.83	0.671	1.02	0.946	0.849	0.997	1.02	0.844	0.587	0.5	0.307	0.326
COR-L 105	0.472	0.445	0.441	0.456	0.442	0.975	0.939	0.845	0.831	0.52	1.03	0.87	0.856	1.02	0.971	0.775	0.773	0.431	0.258	0.336
NCI-H358	0.145	0.148	0.121	0.16	0.14	1.25	1.07	1.06	0.891	0.928	1.07	0.965	0.914	1.05	1.01	1.02	0.904	0.327	0.201	0.213
SK-MES-1	0.645	0.469	0.524	0.556	0.565	1.07	0.991	1.02	0.974	0.918	1.03	0.999	0.985	1.04	1.08	0.999	0.846	0.563	0.222	0.221
LC-2-ad	0.91	0.934	0.923	0.882	0.8	1.01	0.948	0.955	0.953	0.849	1.09	0.985	0.988	1.02	1.05	0.922	0.825	0.521	0.235	0.181
H3255	0.699	0.83	0.754	0.588	0.474	0.979	1.11	1.01	0.939	0.784	1.04	1.01	0.993	1.06	0.963	0.825	0.721	0.391	0.246	0.328
A-427	0.85	0.812	0.747	0.81	0.739	1.07	1	1	1.07	1.01	1.09	1.02	0.97	1.09	1.07	0.515	0.44	0.31	0.218	0.234
NCI-H661	0.58	0.547	0.591	0.554	0.539	0.993	1.01	0.984	0.938	0.903	1.03	0.945	0.986	1.03	1	0.894	0.857	0.686	0.421	0.426
